In PMC7432809, “Antimicrobial Activity of Small Synthetic Peptides Based on the Marine Peptide Turgencin A: Prediction of Antimicrobial Peptide Sequences in a Natural Peptide and Strategy for Optimization of Potency” (International Journal of Molecular Sciences, 2020):
Where no end group is shown, it is not given here.

Columns and labels:
[1] = test system: B. subtilis 168 (pCSS962); assay: Real-time membrane integrity assay (luciferase, D-luciferin); type: cell-based, Bacillus subtilis; details: lowest concentration tested
Source text: (§1) Based on the results from antibacterial screening and the bacterial killing experiment, StAMP-6-10 were further studied for their immediate effect on the membrane integrity and viability on B. subtilis 168 and E. coli K12. In the integrity assay, both bacteria are carrying the luciferase lucGR gene within the plasmid pCSS962. When a compound disrupts the membrane, externally added D-luciferin can diffuse into the cells and function as a substrate for the luciferase enzyme. This, in turn, causes the emission of light as relative luminescence units (RLU), a signal whose strength is relative to the degree of membrane disruption in living cells. If the test compound affects the membrane sufficiently to cause bacterial death, the RLU signal will increase until the bacterial ATP storage is empty. At this time, the RLU signal will decrease in line with the decreasing ATP concentrations, as the enzymatic reaction gradually stops. […] Following membrane disruption, the RLU will reach its peak and start to decrease due to reduced cell numbers. In the assay setup used herein, RLU was measured over a period of 3 min. The short time period was selected as many membrane disruptive compounds usually affect the bacterial membranes immediately. […]

E. coli K12 (pCGLS-11) = assay: Real-time bacterial cell viability assay (lux operon); type: cell-based, Escherichia coli; details: lowest concentration tested
Source text: (§2) A real-time cell viability assay was used to investigate the bactericidal effect of StAMP-6-10. B. subtilis 168 contains a chromosomally integrated lux operon, and E. coli K12 a plasmid-borne lux operon. Both strains emit light as long as they have an active metabolism. If a compound reduces the metabolic activity of the bacteria it will reduce the viability of the cells. […] The decrease in light emission caused by StAMP-8-10 shown in both assays confirmed that these three peptides killed both strains at 50 µg/mL, but not as rapidly as the control chlorhexidine. The same activity observed for StAMP-8-10 in the membrane integrity assay was also observed in both viability assays (Figures S7–S12). […] Only at the lowest concentration tested (0.8 µg/mL), was there no observed membrane activity for these assays.
(§3) A real-time cell viability assay (modified from) was performed using B. subtilis 168 carrying an optimized luxABCDE operon controlled by the promoter Pveg, and E. coli K12 carrying the plasmid pCGLS-11 [53] with the luxCDABE operon from Xenorhabdus luminescence. The procedure was conducted as previously described. The bacteria (~5 × 10^7 bacteria/mL) were subjected to ranging concentrations of StAMP-6-10 (50–3.1 µg/mL) and the positive control to chlorhexidine acetate (assay concentrations 100–1.6 µg/mL). MQ-H2O was used as a negative control. […]

E. coli K12 (pCSS962) = assay: Real-time membrane integrity assay (luciferase, D-luciferin); type: cell-based, Escherichia coli; details: lowest concentration tested
Source text: as §1

B. subtilis 168 = assay: Real-time bacterial cell viability assay (lux operon); type: cell-based, Bacillus subtilis; details: lowest concentration tested
Source text: as §2, §3

[2] = test system: Pseudomonas aeruginosa (ATCC 27853); assay: microbe, parasite or virus in culture; type: cell-based; details: ATCC 27853, 24 h
Procedure: (§4) Two strains of G- bacteria, P. aeruginosa (Pa, ATCC 27853) and E. coli (Ec, ATCC 25922), were also used. Cultures stored at -80 °C in glycerol were transferred to Müller–Hinton plates (MH, Difco Laboratories, Detroit, MI, USA) and incubated for 24 h at 35 °C. Colonies of each strain were transferred to 5 mL liquid MH medium and left shaking (600 rpm) at room temperature overnight. An aliquot of actively growing bacteria (20 µL) was inoculated in 5 mL MH medium and left shaking for 2 h at room temperature. In order to have a sensitive bioassay, the bacterial cultures were diluted with medium to only 2.5–3 × 10^4 bacteria/mL and an aliquot of 50 µL was added to each well in 96 microwell plates (Thermo Fisher Scientific, Roskilde, Denmark) preloaded with peptide solution (50 µL). The antibacterial assays were performed as previously described. The microtiter plates were incubated for 24 h at 35 °C with optical density (595 nm) recorded every hour using an Envision 2103 multilabel reader, controlled by a Wallac Envision manager (PerkinElmer, Waltham, MA, USA). The minimum inhibitory concentration (MIC) was defined as the sample concentration showing an optical density less than 10% of the negative (growth) control, consisting of bacteria and MQ-H2O. Oxytetracycline (concentrations ranging from 20–0.02 µg/mL, Sigma-Aldrich) and indolicidin (concentration ranging from 200–0.2 µg/mL, Sigma-Aldrich) served as a positive (inhibition) control. The synthetic peptides were tested for antibacterial activity in concentrations ranging from 250 to 0.5 µg/mL in two-fold dilutions. All tests were performed in triplicates.

[3] = test system: Escherichia coli (ATCC 25922); assay: microbe, parasite or virus in culture; type: cell-based; details: ATCC 25922, 24 h
Procedure: as §4

G+ strains = assay: Antibacterial assay, MIC range over G+ strains; type: cell-based; details: range over the five G+ test strains
Procedure: (§5) The synthesized peptides were screened for antibacterial activity against five strains of G+ bacteria: B. subtilis (Bs, ATCC 23857), C. glutamicum (Cg, ATCC 13032), S. aureus (Sa, ATCC 9144), Micrococcus luteus (Ml), B. megaterium (Bm) (the last two were obtained from professor Olaf B. Styrvold, UiT The Arctic University of Norway).
as §4, with “The minimum inhibitory concentration (MIC) was defined as the sample concentration showing an optical density less than 10% of the negative (growth) control, consisting of bacteria and MQ-H2O. Oxytetracycline (concentrations ranging from 20–0.02 µg/mL, Sigma-Aldrich) and indolicidin (concentration ranging from 200–0.2 µg/mL, Sigma-Aldrich) served as a positive (inhibition) control. The synthetic peptides were tested for antibacterial activity in concentrations ranging from 250 to 0.5 µg/mL in two-fold dilutions. All tests were performed in triplicates.” left out

Micrococcus luteus = assay: microbe, parasite or virus in culture; type: cell-based; details: 24 h
Procedure: as §5, §4

Bacillus megaterium = assay: microbe, parasite or virus in culture; type: cell-based; details: Bacillus, 24 h
Procedure: as §5, §4

[4] = test system: Bacillus subtilis (ATCC 23857); assay: microbe, parasite or virus in culture; type: cell-based; details: ATCC 23857, 24 h
Procedure: as §5, §4

[5] = test system: Corynebacterium glutamicum (ATCC 13032); assay: microbe, parasite or virus in culture; type: cell-based; details: ATCC 13032, 24 h
Procedure: as §5, §4

[6] = test system: Staphylococcus aureus (ATCC 9144); assay: microbe, parasite or virus in culture; type: cell-based; details: ATCC 9144, 24 h
Procedure: as §5, §4

G- strains = assay: Antibacterial assay, MIC range over G- strains; type: cell-based; details: range over the two G- test strains
Procedure: as §5
as §4, with “The minimum inhibitory concentration (MIC) was defined as the sample concentration showing an optical density less than 10% of the negative (growth) control, consisting of bacteria and MQ-H2O. Oxytetracycline (concentrations ranging from 20–0.02 µg/mL, Sigma-Aldrich) and indolicidin (concentration ranging from 200–0.2 µg/mL, Sigma-Aldrich) served as a positive (inhibition) control. The synthetic peptides were tested for antibacterial activity in concentrations ranging from 250 to 0.5 µg/mL in two-fold dilutions. All tests were performed in triplicates.” left out

Aureobasidium pullulans = assay: microbe, parasite or virus in culture; type: cell-based; details: 48 h
Procedure: (§6) StAMP-1–11 were screened for antifungal activity against C. albicans (Ca, ATCC 10231), A. pullulans (Ap) and Rhodotorula sp. (Rh) (the last two were obtained from professor Arne Tronsmo, The Norwegian University of Life Sciences, Ås, Norway). The antifungal assay was performed as previously described with a few modifications. Briefly, fungal spores were dissolved in potato dextrose broth (Difco Laboratories) with 2% D(+)-glucose (Merck, Darmstadt, Germany) to a concentration of 4 × 10^5 spores/mL. The spores (50 µL) were inoculated on 96 microwell plates (Thermo Fisher Scientific) containing the synthetic peptides (50 µL) and controls (water or antibiotic). The peptides were diluted in MQ-H2O at final concentrations ranging from 250–3.9 µg/mL in two-fold serial dilutions. Triclosan (Sigma-Aldrich, Steinheim, Germany) was used as a positive (antifungal) control (32–0.25 µg/mL), and MQ-H2O as a negative (growth) control. Cultures were grown in room temperature for 24 h (Ca) and 48 h (Ap and Rh). Growth inhibition was determined by measuring OD values at 600 nm by a microplate reader (Synergy H1 Hybrid Multi-Mode Reader, BioTek, Winooski, VT, USA). […] All experiments were done in triplicate.

[7] = test system: Candida albicans (ATCC 10231); assay: microbe, parasite or virus in culture; type: cell-based; details: ATCC 10231, 24 h
Procedure: as §6

Rhodotorula sp. = assay: microbe, parasite or virus in culture; type: cell-based; details: 48 h
Procedure: as §6

three fungal strains = type: cell-based; details: 24 h
Procedure: as §6, with “Cultures were grown in room temperature for 24 h (Ca) and 48 h (Ap and Rh).” left out

[8] = test system: all seven bacterial test strains; type: cell-based; details: 24 h
Procedure: as §5
as §4, with “The minimum inhibitory concentration (MIC) was defined as the sample concentration showing an optical density less than 10% of the negative (growth) control, consisting of bacteria and MQ-H2O. Oxytetracycline (concentrations ranging from 20–0.02 µg/mL, Sigma-Aldrich) and indolicidin (concentration ranging from 200–0.2 µg/mL, Sigma-Aldrich) served as a positive (inhibition) control. The synthetic peptides were tested for antibacterial activity in concentrations ranging from 250 to 0.5 µg/mL in two-fold dilutions. All tests were performed in triplicates.” left out

Row | Compound | concentration with no observed membrane activity [1] [µg/mL] | concentration with no observed membrane activity (E. coli K12 (pCGLS-11)) [µg/mL] | concentration with no observed membrane activity (E. coli K12 (pCSS962)) [µg/mL] | concentration with no observed membrane activity (B. subtilis 168) [µg/mL] | Antimicrobial Activity (MIC) Pa [2] [µg/mL] | Antimicrobial Activity (MIC) Ec [3] [µg/mL] | MIC values, range against G+ strains (G+ strains) [µg/mL] | Antimicrobial Activity (MIC) Ml (Micrococcus luteus) [µg/mL] | Antimicrobial Activity (MIC) Bm (Bacillus megaterium) [µg/mL] | Antimicrobial Activity (MIC) Bs [4] [µg/mL] | Antimicrobial Activity (MIC) Cg [5] [µg/mL] | Antimicrobial Activity (MIC) Sa [6] [µg/mL] | MIC values, range against G- strains (G- strains) [µg/mL] | Antimicrobial Activity (MIC) Ap (Aureobasidium pullulans) [µg/mL] | Antimicrobial Activity (MIC) Ca [7] [µg/mL] | Antimicrobial Activity (MIC) Rh (Rhodotorula sp.) [µg/mL] | MIC, range against the three fungal strains (three fungal strains) [µg/mL] | MIC values, range against all seven bacterial test strains [8] [µg/mL]
1 | [H]/N=C(\N/C(=N/[H])NCCCCCCNC(=N)NC(=N)Nc1ccc(Cl)cc1)Nc1ccc(Cl)cc1 [Chlorhexidine] | 0.8 | 0.8 | 0.8 | 0.8 |  |  |  |  |  |  |  |  |  |  |  |  |  | 
2 | GKKPWWWKAK-NH2 [StAMP-7] |  |  |  |  | 250 | 31.3 | 1.0 to 125 | 31.3 | 1.0 | 3.9 | 2.0 | 125 | 31.3 to 250 | 15.6 | 31.3 | 15.6 |  | 
3 | GKKWWWWKAK-NH2 [StAMP-8] |  |  |  |  | 125 | 62.5 |  | 15.6 | 3.9 | 7.8 | 7.8 | 125 |  | 7.8 | 15.6 | 15.6 | 7.8 to 15.6 | 
4 | GRRPWWWRAR-NH2 [StAMP-9] |  |  |  |  | 31.3 | 7.8 |  | 3.9 | 1.0 | 3.9 | 2.0 | 7.8 |  | 31.3 | 31.3 | 15.6 |  | 1.0 to 31.3
